Experimental data published in publication PMC12257394, “Design, Synthesis, and Biological Evaluation of Ferrocenyl–Cyclo-(Gly‑L‑Pro) Hybrids Sensitizing Multidrug-Resistant Cancer Cells to Anticancer Agents” (ACS Medicinal Chemistry Letters, 2025).
Entries after “also recorded” stand apart in the source; their conditions may differ.

Tests used:
[1] = target: T1, ABCB1 (Homo sapiens, UniProt P08183); assay: Calcein accumulation transport assay in SW620V cells; type: cell-based; conditions: 10 µM compound; for increase of intracellular retention of calcein: ABCB1, SW620V cells; for inhibition of ABCB1 activity (calcein accumulation assay): SW620V cells, n = 3
T1 construct: ABCB1-overexpressing SW620V cells; endogenous in cells; host or cells: SW620V (vincristine-resistant variant of SW620, developed in the authors' laboratory by drug selection)
T1 sequence (P08183 whole entry): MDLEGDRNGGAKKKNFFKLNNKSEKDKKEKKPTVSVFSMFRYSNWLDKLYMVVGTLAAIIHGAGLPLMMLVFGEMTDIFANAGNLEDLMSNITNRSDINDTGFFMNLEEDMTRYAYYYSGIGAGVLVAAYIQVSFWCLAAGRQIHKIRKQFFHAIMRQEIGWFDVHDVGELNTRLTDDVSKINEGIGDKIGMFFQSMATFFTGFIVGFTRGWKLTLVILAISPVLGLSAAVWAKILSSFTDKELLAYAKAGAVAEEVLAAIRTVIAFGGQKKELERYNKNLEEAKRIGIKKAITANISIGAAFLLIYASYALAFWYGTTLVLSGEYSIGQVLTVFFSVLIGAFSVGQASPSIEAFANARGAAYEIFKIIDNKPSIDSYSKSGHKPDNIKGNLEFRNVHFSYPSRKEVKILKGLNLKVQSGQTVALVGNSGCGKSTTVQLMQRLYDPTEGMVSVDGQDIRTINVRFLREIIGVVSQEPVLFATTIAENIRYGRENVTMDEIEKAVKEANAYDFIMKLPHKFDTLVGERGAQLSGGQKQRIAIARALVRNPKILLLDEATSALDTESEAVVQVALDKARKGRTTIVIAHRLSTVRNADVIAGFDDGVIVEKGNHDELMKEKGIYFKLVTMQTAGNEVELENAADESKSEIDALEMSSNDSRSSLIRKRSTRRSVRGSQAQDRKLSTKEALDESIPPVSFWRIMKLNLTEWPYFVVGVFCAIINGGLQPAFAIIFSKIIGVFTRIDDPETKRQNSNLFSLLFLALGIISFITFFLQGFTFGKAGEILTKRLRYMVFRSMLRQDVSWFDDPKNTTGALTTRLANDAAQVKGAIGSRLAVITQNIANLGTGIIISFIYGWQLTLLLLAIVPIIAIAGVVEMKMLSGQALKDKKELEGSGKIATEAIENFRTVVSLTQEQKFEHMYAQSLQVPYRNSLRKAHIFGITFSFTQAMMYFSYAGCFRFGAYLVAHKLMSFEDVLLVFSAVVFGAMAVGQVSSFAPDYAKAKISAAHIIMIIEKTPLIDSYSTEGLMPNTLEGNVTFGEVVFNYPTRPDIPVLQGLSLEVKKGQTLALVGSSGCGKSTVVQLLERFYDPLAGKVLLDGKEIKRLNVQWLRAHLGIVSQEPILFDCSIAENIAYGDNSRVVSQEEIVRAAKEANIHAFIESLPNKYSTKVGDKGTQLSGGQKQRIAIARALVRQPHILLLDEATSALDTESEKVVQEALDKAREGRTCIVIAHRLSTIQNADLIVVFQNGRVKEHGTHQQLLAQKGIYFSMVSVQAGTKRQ
Text: To confirm the hypothesis of direct interaction between putative ABC protein inhibitors and transporter molecules, we conducted a series of experiments based on fluorescent probe transport as described previously. None of the compounds affected 2′,7′-bis(2-carboxyethyl)-5-(and-6)-carboxyfluorescein (BCECF) efflux out of SW620M cells, indicating the lack of interaction between the putative inhibitors and ABCC1 (Figure A). […] As anticipated, none of the newly synthesized compounds affected dye accumulation in drug-sensitive SW620 cells (data not shown).
SW620 cells and their drug-resistant variants overexpressing ABCB1 (SW620V), ABCC1 (SW620M), or ABCG2 (SW620Mito) were trypsinized and suspended in a complete cell - culture medium prewarmed to 37°C at a final density of approximately 1 × 10^6/mL. The tested compounds were added from DMSO stock solutions to a final concentration of 10 µM.
Respective samples were supplemented with a specific fluorescent marker (100 nM calcein AM for ABCB1, 100 nM BCECF AM for ABCC1, and 1 µM pheophorbide A for A BCG2). For the control, given protein-specific inhibitors (10 µM verapamil for ABCB1, 25 µM MK-571 for ABCC1, and 10 µM Ko143 for ABCG2) were added to parallel, tested compound-free, samples. For ABCB1 and ABCG2 assays (dye accumulation assays), intracellular fluorescence was measured by flow cytometry (FACSymphony A1, Becton, Dickinson and Company, New Jersey, USA) immediately after dye addition (time 0) and every 3–5 min up to approximately 30 min using a flow cytometer set at 488 nm excitation and 530/30 nm emission for the calcein/ABCB1 assay and 400 nm excitation and 655/8 nm emission for the pheophorbide A/ABCG2 assay. For the BCECF/ABCC1 assay (dye exclusion assay), the sample was preincubated at 37°C for 10 min, centrifuged (400 × g, 10 min, RT), and then resuspended in fresh medium. The intracellular BCECF concentration was then immediately measured at 488 nm excitation and 530/30 nm emission (time 0). Further measurements were performed at 15 - min intervals. All samples were incubated at 37°C between measurements. The accumulation/exclusion curves were plotted, and the slope of the initial accumulation rate or dye retention half time was evaluated using the GraphPad Prism software version 10 (GraphPad Software, Boston, Massachusetts USA). The difference between the a ccumulation rate/half time value for dye only and the tested compound/inhibitor samples was expressed as a given protein activity measure.

[2] = target: T2, ABCG2 (Homo sapiens, UniProt Q9UNQ0); assay: Pheophorbide A accumulation transport assay in SW620Mito cells; type: cell-based; conditions: 10 µM compound
T2 construct: ABCG2-overexpressing SW620C and SW620Mito; endogenous in cells; host or cells: SW620Mito (mitoxantrone-resistant variant of SW620, developed in the authors' laboratory by drug selection)
T2 sequence (Q9UNQ0 1-655): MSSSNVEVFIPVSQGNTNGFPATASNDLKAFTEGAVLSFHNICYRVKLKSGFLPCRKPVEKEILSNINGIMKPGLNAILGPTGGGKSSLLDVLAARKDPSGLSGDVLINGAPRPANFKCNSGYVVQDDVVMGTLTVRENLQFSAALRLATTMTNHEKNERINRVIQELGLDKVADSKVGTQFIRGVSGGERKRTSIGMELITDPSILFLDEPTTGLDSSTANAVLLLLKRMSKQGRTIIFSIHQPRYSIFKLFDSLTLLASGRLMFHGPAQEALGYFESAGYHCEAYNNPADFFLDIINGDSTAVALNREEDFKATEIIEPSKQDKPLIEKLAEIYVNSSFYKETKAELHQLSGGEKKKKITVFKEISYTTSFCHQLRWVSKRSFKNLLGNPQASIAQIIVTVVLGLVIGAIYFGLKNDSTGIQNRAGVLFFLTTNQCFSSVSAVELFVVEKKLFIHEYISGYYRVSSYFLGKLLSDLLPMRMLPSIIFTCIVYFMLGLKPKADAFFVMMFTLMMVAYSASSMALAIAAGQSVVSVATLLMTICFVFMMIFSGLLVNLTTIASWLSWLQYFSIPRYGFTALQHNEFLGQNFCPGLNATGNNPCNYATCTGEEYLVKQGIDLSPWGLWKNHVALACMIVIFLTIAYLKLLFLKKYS
Text: To confirm the hypothesis of direct interaction between putative ABC protein inhibitors and transporter molecules, we conducted a series of experiments based on fluorescent probe transport as described previously. None of the compounds affected 2′,7′-bis(2-carboxyethyl)-5-(and-6)-carboxyfluorescein (BCECF) efflux out of SW620M cells, indicating the lack of interaction between the putative inhibitors and ABCC1 (Figure A). […] As anticipated, none of the newly synthesized compounds affected dye accumulation in drug-sensitive SW620 cells (data not shown). […]
Respective samples were supplemented with a specific fluorescent marker (100 nM calcein AM for ABCB1, 100 nM BCECF AM for ABCC1, and 1 µM pheophorbide A for A BCG2). […] For ABCB1 and ABCG2 assays (dye accumulation assays), intracellular fluorescence was measured by flow cytometry (FACSymphony A1, Becton, Dickinson and Company, New Jersey, USA) immediately after dye addition (time 0) and every 3–5 min up to approximately 30 min using a flow cytometer set at 488 nm excitation and 530/30 nm emission for the calcein/ABCB1 assay and 400 nm excitation and 655/8 nm emission for the pheophorbide A/ABCG2 assay. […] The intracellular BCECF concentration was then immediately measured at 488 nm excitation and 530/30 nm emission (time 0). […]

[3] = Neutral red uptake viability assay, SW620C; type: cell-based, human; conditions: human, SW620C cells (cisplatin-resistant); SW620C, 72 h, n = 3; read-out: Cytotoxic activity IC50 (95% CI)
Method: The normal lung fibroblast MRC-5 and colorectal adenocarcinoma SW620 cell lines used in this experiment were purchased from American Type Culture Collection (USA) via LGC […]
described previously.10, 11 All cells were cultured under standard conditions (37°C, 5% CO2, 100% humidity) in high-glucose DMEM supplemented with GlutaMaxTM, HEPES (ThermoFisher Scientific, USA), and 10% fetal bovine serum (EURx, Poland). Cells were routinely tested for potential Mycoplasma contamination using the MycoProbe Mycoplasma Detection kit (R&D System, USA).
In total, 104 cells in 100 µL of complete medium were plated per well of a 96-well plate and left overnight to allow cells to adhere to the surface. Then, the cells were exposed to a desired concentration of tested compound(s). Stock solutions were prepared in DMSO and used immediately. The final DMSO concentration was constant and nontoxic (0.1% v/v). After 70-h incubation, neutral red was added to the final concentration of 1 mM. After another 2 h, the medium was aspirated, and cells were washed twice with PBS. Dye was released using 100 µL of a solubilizer (1% acetic acid in 50% ethanol) on an orbital shaker (10 min). Absorbance was read at 540 nm using EnVision Multilabel Plate Reader (Perkin Elmer, USA). Results were expressed as % of control. The IC50 parameters were calculated using GraphPad Prism version 10 (GraphPad Software, Boston, Massachusetts USA). […]
IC₅₀ values were determined in […]
All experiments were performed in triplicate (n = 3).

| SMILES | increase of intracellular retention of calcein [1] | inhibition of ABCB1 activity (calcein accumulation assay) [1] | increase of intracellular retention of pheophorbide A [2] | IC50 at 72 h [3] |
| --- | --- | --- | --- | --- |
| O=C1N/C(=C\c2ccc(-[c-]3cccc3)cc2)C(=O)N2CCC[C@@H]12.[Fe+2].c1cc[cH-]c1 [(S,Z)-4d] | up to 3.4 fold | efficiently inhibited ABCB1 activity; also recorded: inhibit calcein efflux | ≤ 2.9 fold |  |
| O=C1N/C(=C\c2ccccc2-[c-]2cccc2)C(=O)N2CCC[C@@H]12.[Fe+2].c1cc[cH-]c1 [(S,Z)-4b] | up to 3.4 fold | efficiently inhibited ABCB1 activity; also recorded: inhibit calcein efflux | ≤ 2.9 fold |  |
| O=C1N/C(=C\c2ccccc2)C(=O)N2CCC[C@@H]12 [(S,Z)-4e] |  |  |  | > 100 µM |
| O=C1N/C(=C/c2ccccc2)C(=O)N2CCC[C@@H]12 [(S,E)-4e] |  |  |  | > 100 µM |
